In one test the test system is MAPK. Nature of the test: MAPK activation (phospho-p44/42 MAPK immunoblot) in PC12 cells. It counts as cell-based, rat. The following applies: PC12, 0.1, 1 and 10 μM, 0.5 h. How it is done:
(viii) Extracellular signal-regulated kinase (ERK) activity. The kinase activity of the ERKs was measured using the MAPK assay kit (Cell Signaling Technology) according to the manufacturer's protocol. In brief, for kinase activity assays, PC12 cells were grown in 6-well plates (5×10^5 cells/well). Eighteen to twenty-four hours before experiments, the medium was replaced with DMEM with 0.5% FCS and treated as described in the figures. Experimental treatments were performed in 1 ml medium containing 0.5% FCS, with the vehicle or test drugs and/or inhibitors at 37° C., as described in the figures. After treatment, reactions were stopped by placing cells on ice and aspirating the medium. Cells were harvested in 50 mM Tris-HCl, pH 8.0, 150 mM NaCl, 5 mM EDTA, 1 mM DTT, 1% Triton X-100, and protease- and phosphatase-inhibitor cocktails. Protein concentration was determined by the Bradford method. As described previously (Yogev-Falach et al., 2002), each cell lysate, containing 30 μg protein, was separated on 4-12% SDS-polyacrylamide electrophoresis gels, immunoblotted, and identified using phospho-p44/42 MAPK (Thr202/Tyr204) antibody or p44/42 MAPK antibody. Data are representative of three to six independent experiments.
To study the effect of rasagiline on MAPK activation, PC12 cells were treated for 0.5 h with increasing concentrations of rasagiline (0.1, 1 and 10 μM), and quantification of the phospho-MAPK blots were normalized using the total MAPK blots, or PC12 cells were preincubated for 15 min with vehicle alone, or with PD98059 (30 μM) or GF109203X (2.5 μM) and then incubated without or with rasagiline (10 μM) for 0.5 h. Aliquots of cell lysates were then subjected to immunoblot analysis and probed with anti-phospho-MAPK (top blots) and anti-MAPK (bottom blots).
For the effect of propargylamine on MAPK activation, PC12 cells were treated for 0.5 h with increasing concentrations of propargylamine (0.1, 1 and 10 μM). Aliquots of cell lysates were then subjected to immunoblot analysis and probed with anti-phospho-MAPK and anti-MAP kinase. Quantification of the phospho-MAPK were normalized using the total MAPK blots.
Background: A western blot detects proteins with antibodies after separation by electrophoresis.

The next test concerns PKC. Kind of test: PKC phosphorylation in PC12 cell lysates, Western blot with p-PKC (pan) antibody. It counts as cell-based, rat. To be noted: PC12, 0.1, 1 and 10 μM, 1 h. How it is done: (iv) Immunoblot Analyses. For Western blot analyses, attached cells were washed once in cold PBS and then lysed in 1× nonreducing Laemmli buffer followed by boiling for 3-5 min. Protein content was determined using the Bradford method. Equal amounts of protein were separated by SDS-polyacrylamide gel electrophoresis and blotted onto polyvinylidene difluoride (PVDF) membranes (Millipore). Membranes were treated with blocking buffer (5% dry milk in PBS or 5% dry milk, 0.05% Tween 20 (Sigma) in TBS). Primary antibodies were diluted in PBS or in TBS containing 5% BSA, 0.05% Tween 20 and incubated with membranes for 20 h at 4° C., followed by incubation (1 h at room temperature) in dilutions of horseradish peroxidase (HRP)-conjugated secondary antibodies in the same buffers. Following antibody incubations, membranes were washed in 0.5% Tween 20 in PBS or TBS. Detection was achieved using ECL™ Western Blotting Detection Reagent (Amersham, Pharmacia, Little Chalfort Buckinghamshire, UK). Quantification of results was accomplished by measuring the optical density of the labeled bands from the autoradiograms by scanning laser densitometry using the computerized imaging program Bio-ID (Imager, Bio1D software; Vilber Lourmat, Marne La Vallee, France). The values were normalized to β-actin intensity levels.
Since activation of PKC has been shown previously to modulate cell viability, resulting in protection of neuronal cells, it was of interest to investigate the effects of rasagiline on PKC activation. In one experiment, PC12 cells were untreated or treated with various concentrations of rasagiline (0.1, 1 and 10 μM) for 1 hour. […] Phosphorylation of PKC was analyzed in cell lysates by Western blotting and detected with p-PKC (pan) antibody.
The effect of propargylamine on PKC phosphorylation/activation was investigated as described in Example 2 above.

The target in a further test is T1, rat brain MAO-A (Rattus norvegicus, UniProt P21396).
T1 construct: from tissue; host or cells: rat brain homogenate
T1 sequence (P21396 1-526): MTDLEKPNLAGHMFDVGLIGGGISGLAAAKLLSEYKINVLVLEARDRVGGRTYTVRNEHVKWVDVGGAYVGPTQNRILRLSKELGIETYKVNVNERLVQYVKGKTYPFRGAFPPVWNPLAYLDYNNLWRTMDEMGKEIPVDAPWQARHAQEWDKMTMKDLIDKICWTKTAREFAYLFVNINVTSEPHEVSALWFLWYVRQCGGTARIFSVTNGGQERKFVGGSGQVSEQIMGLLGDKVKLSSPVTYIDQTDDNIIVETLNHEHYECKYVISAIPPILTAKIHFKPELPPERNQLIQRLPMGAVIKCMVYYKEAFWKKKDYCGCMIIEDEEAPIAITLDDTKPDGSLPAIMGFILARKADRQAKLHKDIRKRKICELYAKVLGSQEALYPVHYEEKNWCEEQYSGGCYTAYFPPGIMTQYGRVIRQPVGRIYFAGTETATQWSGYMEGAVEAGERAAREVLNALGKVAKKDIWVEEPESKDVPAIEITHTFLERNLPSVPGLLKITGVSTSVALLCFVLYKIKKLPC
Kind of test: In vitro inhibition of rat brain MAO-A. In kind it is biochemical. To be noted: rat brain homogenate, 60 min preincubation at 37° C., 14C-5-hydroxytryptamine. How it is done:
To determine the activity of MAO-A and MAO-B, the test compound is added to a suitable dilution of the enzyme preparation from rat brain (70 μg protein for MAO-B and 150 μg MAO-A assay) in 0.05 M phosphate buffer (pH 7.4). Tthe mixture is incubated together with […], a specific inhibitor of MAO-B (for determination of MAO-A) or with […], a specific inhibitor of MAO-A (for determination of MAO-B). Incubation is carried for 1 h at 37° C. before addition of ^14C-5-hydroxytryptamine binoxalate ([…]), for determination of MAO-A, or ^14C-phenylethylamine ([…]), for determination of MAO-B, and incubation is continued for 30 min or 20 min, respectively. The reaction is stopped with 2 M ice-cold citric acid, and the metabolites are extracted and determined by liquid-scintillation counting in cpm units.
Thus, in one experiment, the in vitro inhibitory activity of 5-(4-propargylpiperazin-1-ylmethyl)-8-hydroxy-quinoline (HLA20) and the 8-hydroxyquinoline derivative designated M32 (both iron chelators disclosed in the International Application PCT/IL03/00932), and propargylamine (P) (0.1, 1, 10, 100 μM) were tested against rat brain MAO-A. The test compounds were added to buffer containing 0.05 μM deprenyl and were incubated with the tissue homogenate for 60 min at 37° C. before addition of ^14C-5-hydroxytryptamine. […]

Broadly, the IC50 is the concentration needed to halve the response being measured.

`C#CCN` [propargylamine]: in the test with MAPK, the MAPK phosphorylation entry was “induced MAPK phosphorylation”. In addition, the PKC phosphorylation result in the test on PKC is given as “significant, dose-dependent increase in PKC phosphorylation”. Moreover, the IC50 against rat brain MAO-A is ~66 µM.

(Values after patent publication US20050191348A1 (priority 2004, published 2005).)
